Laboratory results from ChEMBL document CHEMBL4828735, “Discovery of N-((3S,4S)-4-(3,4-Difluorophenyl)piperidin-3-yl)-2-fluoro-4-(1-methyl-1H-pyrazol-5-yl)benzamide (Hu7691), a Potent and Selective Akt Inhibitor That Enables Decrease of Cutaneous Toxicity” (J Med Chem, 2021).
The source made the active and inactive calls. The calls are words filed in the database; no cut-off is given here.

How the values were obtained:
[1] = system: MDA-MB-231; experiment: Antiproliferative activity against human MDA-MB-231 cells assessed as inhibition of cell growth incubated for 72 hrs by SRB method; format: functional, cell-based; conditions: MDA-MB-231, 72 h
[2] = biological target: cGMP-dependent protein kinase 2 (Homo sapiens) (UniProt Q13237); experiment: Inhibition of PRKG2 (unknown origin) at 0.5 uM
[3] = Microsomal stability in human liver microsomes assessed as intrinsic clearance at 50 uM preincubated for 5 mins with NADPH followed by compound addition and measured upto 60 mins by LC-MS/MS analysis; format: ADME, Microsome; conditions: read-out: CLH
[4] = biological target: RAC-gamma serine/threonine-protein kinase (Homo sapiens, UniProt Q9Y243); experiment: Inhibition of AKT3 (unknown origin)
[5] = Toxicity in Sprague-Dawley rat assessed as appearance of skin lesions at 25 to 75 mg/kg administered daily for 4 weeks; format: organism-based; conditions: in vivo, 672 h, dose 25-75 mg/kg
[6] = Toxicity in mouse assessed as maximum toxicity dose; conditions: in vivo
[7] = Toxicity in BALB/c nude mouse xenografted with human KHOS cells assessed as mortality at 12.5 to 50 mg/kg, ig administered once daily for 22 days; format: organism-based; conditions: in vivo, po, 528 h, dose 12.5-50 mg/kg, time 22 day
[8] = system: HepG2; experiment: Antiproliferative activity against human HepG2 cells assessed as inhibition of cell growth incubated for 72 hrs by SRB method; format: functional, cell-based; conditions: HepG2, 72 h
[9] = biological target: Cytochrome P450 2C8 (Homo sapiens, UniProt P10632); experiment: Inhibition of CYP2C8 (unknown origin); format: ADME
[10] = Toxicity in BALB/c nude mouse xenografted with human 786-0 cells assessed as change in body weight at 12.5 to 50 mg/kg, ig administered once daily for 22 days; format: organism-based; conditions: in vivo, po, 528 h, dose 12.5-50 mg/kg, time 22 day
[11] = system: KHOS/NP; experiment: Antitumor activity against human KHOS cells xenografted in ig dosed BALB/c nude mouse assessed as tumor growth inhibition administered once daily for 22 days; format: functional, organism-based; conditions: dose 12.5-50 mg/kg, time 22.0 day
[12] = Drug metabolism in po dosed Sprague-Dawley rat feces assessed as M5 metabolite formation measured upto 24 hrs by UPLC-TOF-MS/MS analysis; format: ADME, organism-based; conditions: in vivo
[13] = Drug metabolism in po dosed Sprague-Dawley rat bile assessed as M2 metabolite formation measured upto 24 hrs by UPLC-TOF-MS/MS analysis; format: ADME, organism-based; conditions: in vivo
[14] = Toxicity in Sprague-Dawley rat assessed as increase in body weight at 25 to 50 mg/kg administered daily for 4 weeks; format: organism-based; conditions: in vivo, 672 h, dose 25-50 mg/kg
[15] = Drug metabolism in po dosed Sprague-Dawley rat bile assessed as M5 metabolite formation measured upto 24 hrs by UPLC-TOF-MS/MS analysis; format: ADME, organism-based; conditions: in vivo
[16] = biological target: Ribosomal protein S6 kinase alpha-1 (Homo sapiens, UniProt Q15418); experiment: Inhibition of RSK1 (unknown origin)
[17] = AUC(0 to t) in Beagle dog at 20 mg/kg, ig measured upto 96 hrs by LC-MS/MS analysis; format: ADME, organism-based, Canis lupus familiaris; parameters: route […], dose 20 mg/kg, time <=96; conditions: in vivo, po
[18] = biological target: Cytochrome P450 2C9 (Homo sapiens, UniProt P11712); experiment: Inhibition of CYP2C9 (unknown origin); format: ADME
[19] = Toxicity in mouse assessed as death at 250 mg/kg; format: organism-based; conditions: in vivo
[20] = system: A549; experiment: Antiproliferative activity against human A549 cells assessed as inhibition of cell growth incubated for 72 hrs by SRB method; format: functional, cell-based; conditions: A549, 72 h
[21] = Drug metabolism in po dosed Sprague-Dawley rat urine assessed as M1 metabolite formation measured upto 72 hrs by UPLC-TOF-MS/MS analysis; format: ADME, organism-based; conditions: in vivo
[22] = Drug metabolism in po dosed Sprague-Dawley rat feces assessed as M2 metabolite formation measured upto 24 hrs by UPLC-TOF-MS/MS analysis; format: ADME, organism-based; conditions: in vivo
[23] = biological target: Aurora kinase A (Homo sapiens, UniProt O14965); experiment: Inhibition of Aurora A (unknown origin)
[24] = Half life in Sprague-Dawley rat at 15 mg/kg, ig measured upto 72 hrs by LC-MS/MS analysis; format: ADME, organism-based; conditions: in vivo, po
[25] = biological target: Testis-specific serine/threonine-protein kinase 1 (Homo sapiens, UniProt Q9BXA7); experiment: Inhibition of TSSK1 (unknown origin)
[26] = Drug metabolism in po dosed Sprague-Dawley rat urine assessed as M3 metabolite formation measured upto 72 hrs by UPLC-TOF-MS/MS analysis; format: ADME, organism-based; conditions: in vivo
[27] = system: HT-29; experiment: Antiproliferative activity against human HT-29 cells assessed as inhibition of cell growth incubated for 72 hrs by SRB method; format: functional, cell-based; conditions: HT-29, 72 h
[28] = Tmax in Sprague-Dawley rat at 2 mg/kg, iv measured upto 24 hrs by LC-MS/MS analysis; format: ADME, organism-based; conditions: in vivo
[29] = biological target: Cytochrome P450 1A2 (Homo sapiens, UniProt P05177); experiment: Inhibition of CYP1A2 (unknown origin); format: ADME
[30] = system: LNCaP; experiment: Antiproliferative activity against human LNCaP cells assessed as inhibition of cell growth incubated for 72 hrs by SRB method; format: functional, cell-based
[31] = system: HGC-27; experiment: Antiproliferative activity against human HGC-27 cells assessed as inhibition of cell growth incubated for 72 hrs by SRB assay; format: functional, cell-based; conditions: HGC-27, 72 h
[32] = AUC(0 to infinity) in Beagle dog at 20 mg/kg, ig measured upto 96 hrs by LC-MS/MS analysis; format: ADME, organism-based, Canis lupus familiaris; parameters: route […], dose 20 mg/kg, time <=96; conditions: in vivo, po
[33] = Toxicity in Sprague-Dawley rat assessed as increase in body weight at 75 mg/kg administered daily for 4 weeks; format: organism-based; conditions: in vivo, 672 h
[34] = system: HaCaT; experiment: Antiproliferative activity against human HaCaT cells assessed as inhibition of cell growth incubated for 72 hrs by SRB assay; format: cell-based
[35] = system: OVCAR-8; experiment: Antiproliferative activity against human OVCAR-8 cells assessed as inhibition of cell growth incubated for 72 hrs by SRB method; format: functional, cell-based; conditions: OVCAR-8, 72 h
[36] = Drug metabolism in po dosed Sprague-Dawley rat bile assessed as M4 metabolite formation measured upto 24 hrs by UPLC-TOF-MS/MS analysis; format: ADME, organism-based; conditions: in vivo
[37] = biological target: Tyrosine-protein kinase ABL1 (Homo sapiens, UniProt P00519); experiment: Inhibition of ABL (unknown origin)
[38] = AUC(0 to t) in Sprague-Dawley rat at 15 mg/kg, ig measured upto 72 hrs by LC-MS/MS analysis; format: ADME, organism-based; parameters: route […], dose 15 mg/kg, time <=72; conditions: in vivo, po
[39] = Microsomal stability in human liver microsomes assessed as half life at 50 uM preincubated for 5 mins with NADPH followed by compound addition and measured upto 60 mins by LC-MS/MS analysis; format: ADME, Microsome

Cytochrome P450 2C9, sequence (P11712 whole entry): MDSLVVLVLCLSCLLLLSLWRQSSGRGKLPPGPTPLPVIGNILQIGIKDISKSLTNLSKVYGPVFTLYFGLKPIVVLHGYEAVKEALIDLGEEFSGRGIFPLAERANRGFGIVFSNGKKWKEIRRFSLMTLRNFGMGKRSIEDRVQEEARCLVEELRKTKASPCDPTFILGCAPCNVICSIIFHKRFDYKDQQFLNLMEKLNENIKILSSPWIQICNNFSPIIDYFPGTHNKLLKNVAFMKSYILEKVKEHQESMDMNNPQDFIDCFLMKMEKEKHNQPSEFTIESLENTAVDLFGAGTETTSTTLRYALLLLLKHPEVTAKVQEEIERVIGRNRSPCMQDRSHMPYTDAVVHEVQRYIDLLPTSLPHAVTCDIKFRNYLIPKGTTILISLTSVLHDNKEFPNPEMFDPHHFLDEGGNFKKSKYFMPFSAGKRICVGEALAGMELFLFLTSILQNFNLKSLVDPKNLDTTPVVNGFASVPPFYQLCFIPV
Aurora kinase A, sequence (O14965 whole entry): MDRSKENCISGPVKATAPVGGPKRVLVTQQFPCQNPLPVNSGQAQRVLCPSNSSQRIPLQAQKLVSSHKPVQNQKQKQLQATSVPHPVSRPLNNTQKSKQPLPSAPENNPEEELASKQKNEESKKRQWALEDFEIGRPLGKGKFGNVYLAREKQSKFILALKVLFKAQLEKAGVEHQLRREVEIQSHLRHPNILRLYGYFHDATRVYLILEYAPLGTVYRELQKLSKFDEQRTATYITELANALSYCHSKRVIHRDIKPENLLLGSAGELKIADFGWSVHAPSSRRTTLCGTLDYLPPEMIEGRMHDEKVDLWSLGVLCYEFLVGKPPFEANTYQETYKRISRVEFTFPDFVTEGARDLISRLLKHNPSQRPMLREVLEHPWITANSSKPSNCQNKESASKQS
Testis-specific serine/threonine-protein kinase 1, sequence (Q9BXA7 whole entry): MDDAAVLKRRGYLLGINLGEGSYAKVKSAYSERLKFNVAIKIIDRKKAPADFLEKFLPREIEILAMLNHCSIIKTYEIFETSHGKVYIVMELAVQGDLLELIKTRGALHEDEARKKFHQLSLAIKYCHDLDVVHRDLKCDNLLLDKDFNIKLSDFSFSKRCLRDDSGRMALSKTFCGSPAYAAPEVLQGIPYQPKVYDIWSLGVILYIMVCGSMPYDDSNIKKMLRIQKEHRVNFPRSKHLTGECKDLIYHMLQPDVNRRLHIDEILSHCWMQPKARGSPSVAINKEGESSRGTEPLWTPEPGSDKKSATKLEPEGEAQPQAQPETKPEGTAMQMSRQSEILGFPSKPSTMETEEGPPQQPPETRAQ
Cytochrome P450 1A2, sequence (P05177 whole entry): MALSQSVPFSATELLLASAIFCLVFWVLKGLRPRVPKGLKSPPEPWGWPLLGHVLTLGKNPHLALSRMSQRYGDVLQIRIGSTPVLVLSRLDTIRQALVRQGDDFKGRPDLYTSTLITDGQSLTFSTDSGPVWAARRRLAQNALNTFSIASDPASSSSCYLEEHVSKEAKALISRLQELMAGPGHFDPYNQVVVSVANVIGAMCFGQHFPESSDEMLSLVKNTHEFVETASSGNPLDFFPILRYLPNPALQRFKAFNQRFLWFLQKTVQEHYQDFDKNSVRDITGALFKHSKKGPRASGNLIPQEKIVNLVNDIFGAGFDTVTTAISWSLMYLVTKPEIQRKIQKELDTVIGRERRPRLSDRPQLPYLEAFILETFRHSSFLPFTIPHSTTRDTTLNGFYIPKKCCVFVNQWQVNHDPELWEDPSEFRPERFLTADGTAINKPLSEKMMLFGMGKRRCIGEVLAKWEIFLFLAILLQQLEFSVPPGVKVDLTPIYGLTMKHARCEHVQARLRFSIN
RAC-gamma serine/threonine-protein kinase, sequence (Q9Y243 whole entry): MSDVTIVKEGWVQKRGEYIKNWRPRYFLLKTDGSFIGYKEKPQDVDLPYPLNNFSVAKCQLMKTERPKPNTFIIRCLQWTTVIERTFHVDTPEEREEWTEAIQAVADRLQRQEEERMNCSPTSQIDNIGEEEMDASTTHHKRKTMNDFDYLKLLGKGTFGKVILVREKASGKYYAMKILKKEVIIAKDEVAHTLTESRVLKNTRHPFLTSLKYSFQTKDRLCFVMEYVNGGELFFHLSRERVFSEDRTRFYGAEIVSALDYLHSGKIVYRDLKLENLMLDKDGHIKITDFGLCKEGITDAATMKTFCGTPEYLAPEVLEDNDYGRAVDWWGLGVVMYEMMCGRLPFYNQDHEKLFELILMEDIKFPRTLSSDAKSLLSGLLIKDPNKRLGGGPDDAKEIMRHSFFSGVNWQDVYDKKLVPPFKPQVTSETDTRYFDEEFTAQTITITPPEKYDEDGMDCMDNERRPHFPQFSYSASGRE
Cytochrome P450 2C8, sequence (P10632 whole entry): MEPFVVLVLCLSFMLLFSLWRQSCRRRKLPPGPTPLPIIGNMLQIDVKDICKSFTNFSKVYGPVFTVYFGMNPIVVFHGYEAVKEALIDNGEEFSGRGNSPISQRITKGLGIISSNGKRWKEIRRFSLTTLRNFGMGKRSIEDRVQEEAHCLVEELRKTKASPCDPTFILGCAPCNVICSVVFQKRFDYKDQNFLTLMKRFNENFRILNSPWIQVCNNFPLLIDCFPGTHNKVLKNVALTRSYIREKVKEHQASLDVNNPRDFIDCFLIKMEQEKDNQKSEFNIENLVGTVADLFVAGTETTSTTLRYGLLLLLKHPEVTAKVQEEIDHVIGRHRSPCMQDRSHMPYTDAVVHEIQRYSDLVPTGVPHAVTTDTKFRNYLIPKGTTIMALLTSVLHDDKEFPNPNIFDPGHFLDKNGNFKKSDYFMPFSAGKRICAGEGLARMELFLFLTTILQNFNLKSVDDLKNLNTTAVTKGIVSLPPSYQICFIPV
cGMP-dependent protein kinase 2 (Homo sapiens), sequence (Q13237 whole entry): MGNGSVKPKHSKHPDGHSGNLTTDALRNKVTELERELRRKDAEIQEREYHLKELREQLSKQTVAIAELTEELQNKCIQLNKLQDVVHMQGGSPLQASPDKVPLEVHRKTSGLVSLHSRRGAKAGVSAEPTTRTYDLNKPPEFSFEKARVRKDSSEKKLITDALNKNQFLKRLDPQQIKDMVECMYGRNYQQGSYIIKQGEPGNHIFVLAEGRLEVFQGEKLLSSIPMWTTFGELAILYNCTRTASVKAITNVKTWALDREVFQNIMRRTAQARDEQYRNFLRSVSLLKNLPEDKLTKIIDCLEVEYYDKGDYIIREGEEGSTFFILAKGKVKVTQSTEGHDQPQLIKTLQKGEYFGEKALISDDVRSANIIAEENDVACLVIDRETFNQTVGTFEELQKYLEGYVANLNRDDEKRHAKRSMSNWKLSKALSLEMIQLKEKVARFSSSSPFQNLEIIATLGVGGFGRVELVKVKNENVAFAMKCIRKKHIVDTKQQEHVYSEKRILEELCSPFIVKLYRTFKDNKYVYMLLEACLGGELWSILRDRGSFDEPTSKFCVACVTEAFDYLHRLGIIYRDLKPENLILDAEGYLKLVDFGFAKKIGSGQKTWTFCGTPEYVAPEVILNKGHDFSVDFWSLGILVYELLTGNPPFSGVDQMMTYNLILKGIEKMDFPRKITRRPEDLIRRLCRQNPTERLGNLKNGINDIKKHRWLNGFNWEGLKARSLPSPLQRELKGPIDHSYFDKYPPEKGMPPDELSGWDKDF
Ribosomal protein S6 kinase alpha-1, sequence (Q15418 whole entry): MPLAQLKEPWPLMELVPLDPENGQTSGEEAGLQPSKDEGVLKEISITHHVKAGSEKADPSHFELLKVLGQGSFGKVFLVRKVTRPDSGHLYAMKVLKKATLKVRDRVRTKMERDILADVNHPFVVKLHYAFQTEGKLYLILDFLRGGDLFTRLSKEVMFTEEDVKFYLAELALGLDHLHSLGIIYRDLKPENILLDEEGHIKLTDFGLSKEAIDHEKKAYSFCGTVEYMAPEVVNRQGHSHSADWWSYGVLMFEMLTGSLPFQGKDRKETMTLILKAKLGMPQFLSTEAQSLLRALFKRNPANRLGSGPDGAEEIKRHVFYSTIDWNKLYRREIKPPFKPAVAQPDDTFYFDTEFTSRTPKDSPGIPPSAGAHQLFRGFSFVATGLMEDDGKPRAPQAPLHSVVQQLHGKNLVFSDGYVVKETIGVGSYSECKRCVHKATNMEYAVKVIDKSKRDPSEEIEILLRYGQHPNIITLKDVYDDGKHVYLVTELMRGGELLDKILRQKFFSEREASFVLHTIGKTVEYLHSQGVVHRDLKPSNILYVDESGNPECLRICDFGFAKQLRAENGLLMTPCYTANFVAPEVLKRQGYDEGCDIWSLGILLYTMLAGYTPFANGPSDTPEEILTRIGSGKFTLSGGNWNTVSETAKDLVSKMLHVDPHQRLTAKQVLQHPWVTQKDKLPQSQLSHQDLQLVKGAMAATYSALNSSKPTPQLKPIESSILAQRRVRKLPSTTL

With Cl.Cn1nccc1-c1ccc(C(=O)N[C@@H]2CNCC[C@H]2c2ccc(F)c(F)c2)c(F)c1 the IC50 [1] was 16.4 µM, the inhibition [2] was “Active” and the microsomal CLint at 50 µM [3] was 1.4 µL/min/mg. The IC50 [4] was 0.028 µM, the Activity [5] was “Non-Toxic” and the MTD [6] was 150 mg/kg. For the same molecule, the Activity [7] was “Non-Toxic”, the IC50 [8] was 3.6 µM and the IC50 [9] was over 100 µM. For the same molecule, the Activity [10] was “Non-Toxic”, the Activity [11] was “Dose-Dependent Effect” and the Drug metabolism [12] was “Metabolite_Detected”. The Drug metabolism [13] was “Metabolite_Detected”, the Activity [14] was “Toxic” and the Drug metabolism [15] was “Metabolite_Detected”. The IC50 [16] was 0.756 µM, the AUC(0-t) at 96 h [17] was 33300 ng·h/mL and the IC50 [18] was over 100 µM. The Activity [19] was “Toxic”, the IC50 [20] was 6.56 µM and the Drug metabolism [21] was “Metabolite_Detected”. For the same molecule, the Drug metabolism [22] was “Metabolite_Detected”, the IC50 [23] was over 10 µM and the half-life [24] was 8.68 h. For the same molecule, the IC50 [25] was over 10 µM, the Drug metabolism [26] was “Metabolite_Detected” and the IC50 [27] was 20.3 µM. For the same molecule, the Tmax [28] was 6.6 min, the IC50 [29] was over 100 µM and the IC50 [30] was 0.61 µM. The IC50 [31] was 0.68 µM, the AUC(0-inf) [32] was 36300 ng·h/mL and the Activity [33] was “Non-Toxic”. The IC50 [34] was 15.2 µM, the IC50 [35] was 3.52 µM and the Drug metabolism [36] was “Metabolite_Detected”. The IC50 [37] was over 10 µM, the AUC(0-t) at 72 h [38] was 2280 ng·h/mL and the half-life at 50 µM [39] was 16.2 h.
